{"source": "paper PMC4949444", "about": "(Scientific Reports, 2016)", "key": {"STHdh^Q111/Q111": {"tested_on": "STHdh^Q111/Q111", "test": "Serum deprivation survival of STHdh Q111/Q111 striatal neuroblasts (MTT)", "type": "cell-based, mouse", "conditions": "STHdh Q111/Q111, 72 h", "description": "Figure 4 In vitro neuroprotective action of VCE-003.2. (a) HiB5 cells were treated with quinolinic acid (QA; 2,5 mM) in the presence or the absence of VCE-003.2 (50 and 250 nM) and cell viability was determined after 24 h by the MTT assay. (b) QA-induced apoptosis measured by cleaved caspase 3 immunostaining (upper panel) of differentiating HiB5 cells was quantified in the presence or absence of VCE-003.2 (250 nM). Cell counts were referred to total cell nuclei counterstained with DAPI and c-caspase3^+ cell quantification is shown in the lower panel. […]. (d) Aggregation of mut-Htt was assessed by fluorescence microscopy in immortalized striatal STHdh transfected cells with a CFP-tagged expression vector of mutant huntingtin (mut-Htt) and counterstained with fluorescent phalloidin (upper panel). […]. Results are representative of three independent experiments. Values are expressed as means ± S. D. *p < 0.05 and ***p < 0.001 vs. Vehicle; ^#p < 0.05 ^##p < 0.01 vs. QA. […]\nThe HiB5 hippocampal progenitor cell line (kindly provided by Prof. Z. Kokaia, Lund Stem Cell Center, Sweden) was grown as described[46] in DMEM supplemented with 2 mM glutamine, 1% penicillin/streptomycin and 10% (v/v) fetal calf serum (FCS; Lonza, Switzerland). […] Cell viability was determined after 24 h using the 3-[4,5-dimethylthiazol-2-yl]-2,5-diphenyltetrazolium bromide (MTT) tesresults int. […]"}, "CB1 receptor": {"molecular_target": "T1, CB1 receptor (Homo sapiens, UniProt P21554)", "T1 construct": "purchased Perkin-Elmer Life and Analytical Sciences, Boston, MA; host or cells: HEK293 EBNA cells stably expressing the receptor", "T1 sequence (P21554 whole entry)": "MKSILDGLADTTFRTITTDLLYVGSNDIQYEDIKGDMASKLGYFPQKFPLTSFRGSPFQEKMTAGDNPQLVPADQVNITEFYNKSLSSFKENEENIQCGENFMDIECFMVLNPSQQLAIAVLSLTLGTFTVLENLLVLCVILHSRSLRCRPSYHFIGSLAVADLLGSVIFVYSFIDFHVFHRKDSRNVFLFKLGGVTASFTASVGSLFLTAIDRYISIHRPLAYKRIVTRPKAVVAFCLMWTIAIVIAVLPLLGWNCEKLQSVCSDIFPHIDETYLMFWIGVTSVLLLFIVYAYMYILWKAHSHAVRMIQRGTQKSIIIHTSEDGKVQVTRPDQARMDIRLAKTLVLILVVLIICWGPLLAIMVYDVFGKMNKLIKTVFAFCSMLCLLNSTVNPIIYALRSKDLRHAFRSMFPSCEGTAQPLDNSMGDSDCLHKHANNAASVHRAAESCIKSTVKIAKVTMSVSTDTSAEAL", "test": "CB1 receptor binding, [3H]CP55940 competition", "conditions": "data not shown; read-out: predicted Ki, CB1 receptor", "description": "CB1 and CB2 receptor binding affinities were determined by competition studies using [^3H]CP55940 as radioligand and commercial membrane preparations of HEK293 EBNA cells stably expressing the respective receptor type (Perkin-Elmer Life and Analytical Sciences, Boston, MA), following a procedure previously described."}}}
{"smiles": "CCCCCC1=C(NCC)C(=O)C(C/C=C(\\C)CCC=C(C)C)=C(O)C1=O", "note": "[VCE-003.2]", "values": [{"measurement": "neuronal viability after serum deprivation", "setting": "STHdh^Q111/Q111", "value": "improved"}, {"measurement": "Ki", "setting": "CB1 receptor", "value": "> 40", "unit": "µM"}]}
